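Method: 48-hour compound exposure of cells in 96-well plates, five concentrations, linear interpolation of endpoints. The concentration for 50% growth inhibition is given as GI50. At the TGI there is no net growth.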
Tests used:
Assay in all cases: growth of human tumour cells (NCI), 48 h
[1] = system: MOLT-4 leukemia
[2] = system: NCI-H23 lung
[3] = system: MDA-MB-435
[4] = system: TK-10 renal
[5] = system: A498 renal
[6] = system: HT29 colon
[7] = system: HCT-15 colon
[8] = system: RPMI-8226 leukemia
[9] = system: T-47D breast
[10] = system: CAKI-1 renal
[11] = system: SK-OV-3 ovarian
[12] = system: MDA-MB-231 breast
[13] = system: K-562 leukemia
[14] = system: EKVX NSCLC
[15] = system: NCI-H460 lung
[16] = system: U251 CNS
[17] = system: HOP-62 NSCLC
[18] = system: PC-3 prostate
[19] = system: SF-295 CNS
[20] = system: IGROV1 ovarian
[21] = system: CCRF-CEM leukemia
[22] = system: M14 melanoma
[23] = system: HCC-2998 colon
[24] = system: HL-60(TB) leukemia
[25] = system: NCI-H226 lung
[26] = system: HOP-92 NSCLC
[27] = system: SR leukemia
[28] = system: COLO 205 colon
[29] = system: SK-MEL-28 melanoma
[30] = system: SN12C renal
[31] = system: SK-MEL-2 melanoma
[32] = system: NCI-H522 lung
[33] = system: SNB-19 CNS
[34] = system: RXF 393 renal
[35] = system: A549 NSCLC
[36] = system: NCI/ADR-RES ovarian
[37] = system: BT-549 breast
[38] = system: SF-539 CNS
[39] = system: OVCAR-4 ovarian
[40] = system: OVCAR-5 ovarian
[41] = system: SF-268 CNS
[42] = system: HS 578T breast
[43] = system: LOX IMVI melanoma
[44] = system: UACC-257 melanoma
[45] = system: DU-145 prostate
[46] = system: 786-0 renal
[47] = system: SK-MEL-5 melanoma
[48] = system: SW-620 colon
[49] = system: HCT-116 colon
[50] = system: OVCAR-8 ovarian
[51] = system: UACC-62 melanoma
[52] = system: MCF7 breast
[53] = system: MALME-3M melanoma
[54] = system: UO-31 renal
[55] = system: KM12 colon
[56] = system: ACHN renal
[57] = system: SNB-75 CNS
[58] = system: OVCAR-3 ovarian

SMILES: NC(=O)n1c(=O)n(-c2cccc(C(F)(F)F)c2)c(=O)c2cc(-c3ccc(F)cc3F)ccc21
- GI50 [1]: 2.22 µM
- TGI [1]: 6.16 µM
- GI50 [2]: 1.23 µM
- TGI [2]: 4.63 µM
- GI50 [3]: 1.89 µM
- TGI [3]: 7.33 µM
- GI50 [4]: 4.04 µM
- TGI [4]: 9.74 µM
- GI50 [5]: 0.512 µM
- TGI [5]: 1.93 µM
- GI50 [6]: 4.38 µM
- TGI [6]: 18.8 µM
- GI50 [7]: 0.79 µM
- TGI [7]: 2.68 µM
- GI50 [8]: 0.99 µM
- TGI [8]: 5.12 µM
- GI50 [9]: 1.61 µM
- TGI [9]: 6.28 µM
- GI50 [10]: 1.9 µM
- TGI [10]: 6.38 µM
- GI50 [11]: 1.6 µM
- TGI [11]: 4.42 µM
- GI50 [12]: 2.12 µM
- TGI [12]: 6.86 µM
- GI50 [13]: 0.771 µM
- TGI [13]: 80.3 µM
- GI50 [14]: 2.83 µM
- TGI [14]: 9.59 µM
- GI50 [15]: 1.39 µM
- TGI [15]: 6.8 µM
- GI50 [16]: 2.01 µM
- TGI [16]: 11.1 µM
- GI50 [17]: 1.96 µM
- TGI [17]: 4.79 µM
- GI50 [18]: 1.07 µM
- TGI [18]: 5.73 µM
- GI50 [19]: 1.68 µM
- TGI [19]: 3.51 µM
- GI50 [20]: 2.12 µM
- TGI [20]: 15.1 µM
- GI50 [21]: 3.07 µM
- TGI [21]: 19 µM
- GI50 [22]: 1.34 µM
- TGI [22]: 3.8 µM
- GI50 [23]: 2.76 µM
- TGI [23]: 9.26 µM
- GI50 [24]: 1.27 µM
- TGI [24]: 7.52 µM
- GI50 [25]: 1.31 µM
- TGI [25]: 3.99 µM
- GI50 [26]: 0.149 µM
- TGI [26]: 0.568 µM
- GI50 [27]: 0.58 µM
- TGI [27]: 4.6 µM
- GI50 [28]: 3.35 µM
- TGI [28]: 10.6 µM
- GI50 [29]: 1.39 µM
- TGI [29]: 8.55 µM
- GI50 [30]: 1.27 µM
- TGI [30]: 7.24 µM
- GI50 [31]: 0.75 µM
- TGI [31]: 2.82 µM
- GI50 [32]: 0.493 µM
- TGI [32]: 3.74 µM
- GI50 [33]: 1.51 µM
- TGI [33]: 12.7 µM
- GI50 [34]: 1.23 µM
- TGI [34]: 3.13 µM
- GI50 [35]: 3.19 µM
- TGI [35]: 11.8 µM
- GI50 [36]: 2.06 µM
- TGI [36]: 8.87 µM
- GI50 [37]: 0.315 µM
- TGI [37]: 1.12 µM
- GI50 [38]: 2.11 µM
- TGI [38]: 8.5 µM
- GI50 [39]: 2.81 µM
- TGI [39]: 16.5 µM
- GI50 [40]: 3.38 µM
- TGI [40]: 14.4 µM
- GI50 [41]: 2.57 µM
- TGI [41]: 13 µM
- GI50 [42]: 2.12 µM
- TGI [42]: 7.06 µM
- GI50 [43]: 1.68 µM
- TGI [43]: 3.76 µM
- GI50 [44]: 1.06 µM
- TGI [44]: 4.54 µM
- GI50 [45]: 3.53 µM
- TGI [45]: 15.5 µM
- GI50 [46]: 1.94 µM
- TGI [46]: 4.54 µM
- GI50 [47]: 0.338 µM
- TGI [47]: 1.21 µM
- GI50 [48]: 2.65 µM
- TGI [48]: 10.4 µM
- GI50 [49]: 0.559 µM
- TGI [49]: 1.98 µM
- GI50 [50]: 1.84 µM
- TGI [50]: 9.65 µM
- GI50 [51]: 0.363 µM
- TGI [51]: 1.69 µM
- GI50 [52]: 1.74 µM
- TGI [52]: 6.47 µM
- GI50 [53]: 1.44 µM
- TGI [53]: 5.3 µM
- GI50 [54]: 2.19 µM
- TGI [54]: 8.44 µM
- GI50 [55]: 2.55 µM
- TGI [55]: 7.15 µM
- GI50 [56]: 2.42 µM
- TGI [56]: 10.1 µM
- GI50 [57]: 1.81 µM
- TGI [57]: 7.47 µM

SMILES: Cc1[nH]c(C(=O)Nc2ccccc2OCc2cccc(C(=O)NC3CCNC3)c2)c(Cl)c1Cl (stereo not drawn)
- GI50 [2]: 1.91 µM
- TGI [2]: 3.89 µM
- GI50 [3]: 1.79 µM
- TGI [3]: 3.33 µM
- GI50 [4]: 2.86 µM
- TGI [4]: 7.19 µM
- GI50 [5]: 12.6 µM
- TGI [5]: 26.7 µM
- GI50 [7]: 4.87 µM
- TGI [7]: 22.7 µM
- GI50 [8]: 2.31 µM
- TGI [8]: 5.07 µM
- GI50 [10]: 2.05 µM
- TGI [10]: 5.1 µM
- GI50 [11]: 23.6 µM
- TGI [11]: 47.3 µM
- GI50 [12]: 1.88 µM
- TGI [12]: 3.59 µM
- GI50 [14]: 1.95 µM
- TGI [14]: 4.64 µM
- GI50 [15]: 1.9 µM
- TGI [15]: 3.58 µM
- GI50 [19]: 4.52 µM
- TGI [19]: 38.9 µM
- GI50 [21]: 1.91 µM
- TGI [21]: 4.46 µM
- GI50 [22]: 1.75 µM
- TGI [22]: 3.4 µM
- GI50 [23]: 1.91 µM
- TGI [23]: 3.55 µM
- GI50 [24]: 2.21 µM
- TGI [24]: 5.11 µM
- GI50 [25]: 15.3 µM
- TGI [25]: 47.3 µM
- GI50 [26]: 3.57 µM
- TGI [26]: 20.5 µM
- GI50 [58]: 1.89 µM
- TGI [58]: 3.44 µM
- GI50 [29]: 1.86 µM
- TGI [29]: 3.43 µM
- GI50 [30]: 11 µM
- TGI [30]: 27.7 µM
- GI50 [31]: 19 µM
- TGI [31]: 57.1 µM
- GI50 [34]: 2.07 µM
- TGI [34]: 4.9 µM
- GI50 [36]: > 100 µM
- TGI [36]: > 100 µM
- GI50 [37]: 5.15 µM
- TGI [37]: 25.1 µM
- GI50 [38]: 1.74 µM
- TGI [38]: 3.26 µM
- GI50 [40]: 1.76 µM
- TGI [40]: 3.24 µM
- GI50 [44]: 5.75 µM
- TGI [44]: 31.1 µM
- GI50 [45]: 1.88 µM
- TGI [45]: 3.37 µM
- GI50 [47]: 5.25 µM
- TGI [47]: 19.2 µM
- GI50 [48]: 1.86 µM
- TGI [48]: 3.54 µM
- GI50 [49]: 1.85 µM
- TGI [49]: 3.67 µM
- GI50 [51]: 1.67 µM
- TGI [51]: 3.32 µM
- GI50 [54]: 15.4 µM
- TGI [54]: 51.1 µM
- GI50 [55]: 1.94 µM
- TGI [55]: 3.69 µM
- GI50 [56]: 3.17 µM
- TGI [56]: 11.5 µM
- GI50 [57]: 1.56 µM
- TGI [57]: 4.95 µM

Reference: PubChem BioAssay (NCI)
